# Measured values reported in patent US20220265817A1, “THERAPEUTIC COMPOSITIONS AND METHODS FOR TREATING HEPATITIS B” (priority 2017, published 2022).
# Where two headings read alike, the source gives them in different places.
# Key:
# [1] = system: HBV rcDNA in HepDE19 cells; assay: HepDE19 cell culture system, rcDNA quantitation using bDNA assay, MacSynergy II; assay type: cell-based, human hepatoma cell line; settings: for AVERAGE % INHIBITION: GLS-4 0 μM; for EC50: Hepatitis B virus
# Description: In vitro combination studies were conducted using the method of Prichard and Shipman (Prichard M N, and Shipman C Jr., Antiviral Research, 1990, 14 (4-5), 181-205; and Prichard M N, et. al., MacSynergy II). HepDE19 cell culture system is a HepG2 (human hepatocarcinoma) derived cell line that supports HBV DNA replication and cccDNA formation in a tetracycline (Tet)-regulated manner and produces HBV rcDNA and a detectable reporter molecule dependent on the production and maintenance of cccDNA (Guo et al 2007. J. Virol 81:12472-12484). HepDE19 (50,000 cells/well) were plated in 96 well collagen-coated tissue-culture treated microtiter plates in DMEM/F12 medium supplemented with 10% fetal bovine serum, 1% penicillin-streptomycin and 1 μg/ml tetracycline and incubated in a humidified incubator at 37° C. and 5% CO2 overnight. Next day, the cells were switched to fresh medium without tetracycline and incubated for 4 hrs at 37° C. and 5% CO2. […] The two inhibitors were tested both singly as well as in combinations in a checkerboard fashion such that each concentration of inhibitor A was combined with each concentration of inhibitor B to determine their combination effects on inhibition of rcDNA production. Following a 7 day-incubation of cells with compound combinations, the level of rcDNA present in the inhibitor-treated wells was measured using a Quantigene 2.0 bDNA assay kit (Affymetrix, Santa Clara, Calif.) with HBV specific custom probe set and manufacturers instructions. […] The RLU data from the single compound treated cells were analyzed using XL-Fit module in Microsoft Excel to determine EC50 values using a 4-parameter curve fitting algorithm. Concurrently, the effect of compounds on cell viability was assessed using replicate plates, plated at a density of 5,000 cells/well and incubated for 4 days, to determine the ATP content as a measure of cell viability using the cell-titer glo reagent (CTG; Promega Corporation, Madison, Wis.) as per manufacturer's instructions.
# In vitro combination studies were conducted using the method of Prichard and Shipman (Prichard M N, Shipman C, Jr., Antiviral Res, 14, 181-205 (1990)). The HepDE19 cell line was developed as described in Guo et al. (Guo et al., J Virol, 81, 12472-12484 (2007)). It is a human hepatoma cell line stably transfected with the HBV genome, and which can express HBV pregenomic RNA and support HBV rcDNA (relaxed circular DNA) synthesis in a tetracycline-regulated manner. HepDE19 cells were plated in 96 well tissue-culture treated microtiter plates in DMEM/F12 medium supplemented with 10% fetal bovine serum+1% penicillin-streptomycin without tetracycline and incubated in a humidified incubator at 37° C. and 5% CO2 overnight. […] The two inhibitors were tested both singly as well as in combinations in a checkerboard fashion such that each concentration of inhibitor A was combined with each concentration of inhibitor B to determine their combination effects on inhibition of rcDNA production. Following a 48 hour-incubation, the level of rcDNA present in the inhibitor-treated wells was measured using a bDNA assay (Affymetrix) with HBV specific custom probe set and manufacturers instructions. […] Concurrently, the effect of inhibitor combinations on cell viability was assessed using replicate plates that were used to determine the ATP content as a measure of cell viability using the Cell-TiterGlo reagent (Promega) as per manufacturer's instructions.
# In vitro combination studies were conducted using the method of Prichard and Shipman (1990) (Prichard M N, Shipman C, Jr. 1990. A three-dimensional model to analyze drug-drug interactions. Antiviral Res 14:181-205 AND Prichard M N. 1992. MacSynergy II, University of Michigan).
# [2] = system: D type HBV in primary human hepatocytes; assay: microbe, parasite or virus in culture; assay type: cell-based; settings: Hepatitis B virus, Hepatocyte
# How it was run: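 Percoll-purified hepatocytes infected with genotype D HBV on day 1, then treated from day 2 with compound refreshed every other day; supernatant HBV DNA quantified by qPCR on day 8. Single agents run at 7 concentrations, 3-fold dilutions, triplicate; combinations in 5×5 matrix, analysed with MacSynergy.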
# [3] = system: D type HBV in primary human hepatocytes (HBeAg); assay: microbe, parasite or virus in culture; assay type: cell-based; settings: Hepatitis B virus, Hepatocyte
# How it was run: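 Primary hepatocytes isolated by liver perfusion and Percoll-purified were infected with genotype D HBV one day post-seeding. Compounds were added on day 2 (7 concentrations, 3-fold dilutions, triplicate), with medium refreshed every other day. Day-8 supernatant HBeAg was measured by ELISA and expressed as % inhibition versus DMSO control.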
structure (smiles),measurement,setting,value
CC[C@@H](C)NS(=O)(=O)c1ccc(F)c(C(=O)Nc2ccc(F)c(F)c2)c1 [Compound 3],AVERAGE % INHIBITION,[1]; COMPOUND 3 0.040 μM,11.14%
same,AVERAGE % INHIBITION,[1]; COMPOUND 3 0.110 μM,19.99%
same,AVERAGE % INHIBITION,[1]; COMPOUND 3 0.330 μM,56.68%
same,AVERAGE % INHIBITION,[1]; COMPOUND 3 1.000 μM,86.87%
same,AVERAGE % INHIBITION,[1]; COMPOUND 3 3.000 μM,94.49%
same,EC50,"[1]; HepDE19, rcDNA, bDNA assay, DE19 cells, read-out: Inhibitor A EC50",272 nM
same,EC50,"[1]; HepDE19, rcDNA by bDNA assay, single agent, read-out: INHIBITOR A EC50",454 nM
same,EC50,"[2]; 456 h, HBV DNA endpoint, PHH, determined in an earlier separate experiment (Table 19d), read-out: Inhibitor B EC50",876 nM
same,EC50,"[2]; 576 h, PHH, determined in an earlier separate experiment (Table 24d), read-out: Inhibitor B EC50 HBV DNA",876 nM
same,inhibition at 0.06173 µM,"[2]; read-out: AVERAGE % […] DNA, COMPOUND 3 61.73 nM alone (Table 19a)",-28.1%
same,inhibition at 0.06864 µM,"[2]; read-out: AVERAGE % […] DNA, COMPOUND 3 68.64 nM alone (Table 20a)",-2.79%
same,inhibition at 0.18519 µM,"[2]; read-out: AVERAGE % […] DNA, COMPOUND 3 185.19 nM alone (Table 19a), read-out: AVERAGE % INHIBITION HBV DNA",-25.9%
same,inhibition at 0.20593 µM,"[2]; read-out: AVERAGE % […] DNA, COMPOUND 3 205.93 nM alone (Table 20a)",-5.02%
same,inhibition at 0.55556 µM,"[2]; read-out: AVERAGE % […] DNA, COMPOUND 3 555.56 nM alone (Table 19a), read-out: AVERAGE % INHIBITION HBV DNA",-3.32%
same,inhibition at 0.61778 µM,"[2]; read-out: AVERAGE % […] DNA, COMPOUND 3 617.78 nM alone (Table 20a)",34.8%
same,inhibition at 1.66667 µM,"[2]; read-out: AVERAGE % […] DNA, COMPOUND 3 1666.67 nM alone (Table 19a)",25.9%
same,inhibition at 1.85333 µM,"[2]; read-out: AVERAGE % […] DNA, COMPOUND 3 1853.33 nM alone (Table 20a)",66.4%
same,inhibition at 5 µM,"[2]; read-out: AVERAGE % […] DNA, COMPOUND 3 5000.00 nM alone (Table 19a), read-out: AVERAGE % INHIBITION HBV DNA",74.8%
same,inhibition at 5.56 µM,"[2]; read-out: AVERAGE % […] DNA, COMPOUND 3 5560.00 nM alone (Table 20a)",85.3%
same,inhibition at 61.73 µM,"[2]; read-out: AVERAGE % […] DNA, COMPOUND 3 61.73 μM alone",-11.7%
same,inhibition at 185.19 µM,"[2]; read-out: AVERAGE % […] DNA, COMPOUND 3 185.19 μM alone",4.14%
same,inhibition at 555.56 µM,"[2]; read-out: AVERAGE % […] DNA, COMPOUND 3 555.56 μM alone",26.5%
same,inhibition at 1666.67 µM,"[2]; read-out: AVERAGE % […] DNA, COMPOUND 3 1666.67 μM alone",69.4%
same,inhibition at 5000 µM,"[2]; read-out: AVERAGE % […] DNA, COMPOUND 3 5000.00 μM alone",84.3%
same,EC50,"[2]; HBV DNA, determined in an earlier separate experiment, read-out: Inhibitor EC50",876 nM
same,EC50,"[3]; 456 h, read-out: Inhibitor B EC50",8850 nM
same,EC50,"[3]; 576 h, read-out: Inhibitor B EC50 HBeAg",8580 nM
same,inhibition at 0.06173 µM,"[3]; read-out: AVERAGE % INHIBITION HBeAg, COMPOUND 3 61.73 nM alone",-11.3%
same,inhibition at 0.18519 µM,"[3]; read-out: AVERAGE % INHIBITION HBeAg, COMPOUND 3 185.19 nM alone",-16%
same,inhibition at 0.55556 µM,"[3]; read-out: AVERAGE % INHIBITION HBeAg, COMPOUND 3 555.56 nM alone",-5.39%
same,inhibition at 1.66667 µM,"[3]; read-out: AVERAGE % INHIBITION HBeAg, COMPOUND 3 1666.67 nM alone",2.34%
same,inhibition at 5 µM,"[3]; read-out: AVERAGE % INHIBITION HBeAg, COMPOUND 3 5000.00 nM alone",27.3%
same,inhibition at 61.73 µM,"[3]; read-out: AVERAGE % INHIBITION HBeAg, COMPOUND 3 61.73 μM alone",-11.1%
same,inhibition at 185.19 µM,"[3]; read-out: AVERAGE % INHIBITION HBeAg, COMPOUND 3 185.19 μM alone",-4.9%
same,inhibition at 555.56 µM,"[3]; read-out: AVERAGE % INHIBITION HBeAg, COMPOUND 3 555.56 μM alone",-1.02%
same,inhibition at 0.06859 µM,"[3]; read-out: AVERAGE % INHIBITION, TAF 0.00 nM, COMPOUND 3 68.59 nM",-5.05%
same,inhibition at 0.20576 µM,"[3]; read-out: AVERAGE % INHIBITION, TAF 0.00 nM, COMPOUND 3 205.76 nM",-6.33%
same,inhibition at 0.61728 µM,"[3]; read-out: AVERAGE % INHIBITION, TAF 0.00 nM, COMPOUND 3 617.28 nM",2.77%
same,inhibition at 1.85185 µM,"[3]; read-out: AVERAGE % INHIBITION, TAF 0.00 nM, COMPOUND 3 1851.85 nM",29.7%
same,inhibition at 5.55556 µM,"[3]; read-out: AVERAGE % INHIBITION, TAF 0.00 nM, COMPOUND 3 5555.56 nM",40.4%
same,EC50,[3]; read-out: Inhibitor EC50,8850 nM
